# Test results reported in PubChem BioAssay AID192 (DTP/NCI, 2004).
# “And” between values parts separate entries of the source, which are not always exact repeats. Equal values may be shown once. Inconclusive results and toxic doses are left out.
# Tested on: BDF1 mice, B16 melanoma ip, median survival T/C
# Test: NCI In Vivo Anticancer Drug Screen. Data for tumor model B16 Melanoma (intraperitoneal) in B6D2F1 (BDF1) mice
# Settings: endpoint: median survival time, higher = longer survival
# In short: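 Vehicle-treated animals serve as the reference (C); treated animals (T) are scored for survival or tumor size after tumor transplantation.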
# [1] = dose: 100.0 mg/kg/injection, schedule: Q01DX009 (ip), vehicle: saline with Tween-80
# [2] = dose: 25.0 mg/kg/injection, schedule: Q01DX009 (ip), vehicle: saline with Tween-80
compound,measurement,setting,value
O=S(=O)(O)c1ccc(N=Nc2ccc(O)cc2)cc1,T/C,"dose: 50.0 mg/kg/injection, schedule: Q04DX003 (ip), vehicle: Klucel (hydroxypropylcellulose) (HPC)",105 % of control
same,T/C,"dose: 100.0 mg/kg/injection, schedule: Q04DX003 (ip), vehicle: Klucel (hydroxypropylcellulose) (HPC)",97 % of control
same,T/C,"dose: 200.0 mg/kg/injection, schedule: Q04DX003 (ip), vehicle: Klucel (hydroxypropylcellulose) (HPC)",91 % of control
Cc1ccc2c(c1)n([O-])c1cc(Cl)ccc1[n+]2=O,T/C,"dose: 12.5 mg/kg/injection, schedule: Q01DX009 (ip), vehicle: saline with Tween-80",115 % of control
same,T/C,[1],122 % of control
C1=NCCCN1,T/C,"dose: 25.0 mg/kg/injection, schedule: Q01DX009 (ip), vehicle: saline",114 % of control
same,T/C,"dose: 50.0 mg/kg/injection, schedule: Q01DX009 (ip), vehicle: saline",117 % of control
same,T/C,"dose: 100.0 mg/kg/injection, schedule: Q01DX009 (ip), vehicle: saline",113 % of control
[Cl][Pt+2][Cl].[NH-]C1CCC1.[NH2-],T/C,"dose: 1.5 mg/kg/injection, schedule: Q01DX009 (ip), vehicle: saline",176 % of control
same,T/C,"dose: 3.0 mg/kg/injection, schedule: Q01DX009 (ip), vehicle: saline",162 % of control
CC(C)N(CCCC#N)C(C)C,T/C,[2],91 % of control
same,T/C,"dose: 50.0 mg/kg/injection, schedule: Q01DX009 (ip), vehicle: saline with Tween-80",102 % of control
same,T/C,[1],100 % of control
O=S(=O)(F)c1cc(C[P+](c2ccccc2)(c2ccccc2)c2ccccc2)ccc1Cl,T/C,"dose: 0.1 mg/kg/injection, schedule: Q01DX009 (ip), vehicle: saline with Tween-80",105 % of control
same,T/C,"dose: 0.1 mg/kg/injection, schedule: Q04DX003 (ip), vehicle: saline with Tween-80",112 % of control
same,T/C,"dose: 0.2 mg/kg/injection, schedule: Q01DX009 (ip), vehicle: saline with Tween-80",90 % of control
same,T/C,"dose: 0.2 mg/kg/injection, schedule: Q04DX003 (ip), vehicle: saline with Tween-80",110 % of control
same,T/C,"dose: 0.4 mg/kg/injection, schedule: Q01DX009 (ip), vehicle: saline with Tween-80",100 % of control
same,T/C,"dose: 0.4 mg/kg/injection, schedule: Q04DX003 (ip), vehicle: saline with Tween-80",110 % of control
same,T/C,"dose: 3.0 mg/kg/injection, schedule: Q04DX003 (ip), vehicle: saline with Tween-80",86 % of control
same,T/C,"dose: 12.5 mg/kg/injection, schedule: Q04DX003 (ip), vehicle: saline with Tween-80",86 % of control
O=P1(N(CCCl)CCCl)NCCCO1 (configuration not stated),T/C,"dose: 2.5 mg/kg/injection, schedule: Q01DX009 (ip), vehicle: saline",102 % of control
same,T/C,"dose: 5.0 mg/kg/injection, schedule: Q01DX009 (ip), vehicle: saline",100 % of control
same,T/C,"dose: 6.25 mg/kg/injection, schedule: Q01DX017 (ip), vehicle: saline",110 % of control
same,T/C,"dose: 6.25 mg/kg/injection, schedule: Q02DX009 (ip), vehicle: saline",107 % of control and 108 % of control
same,T/C,"dose: 10.0 mg/kg/injection, schedule: Q01DX005 (ip), vehicle: water",100 % of control
same,T/C,"dose: 10.0 mg/kg/injection, schedule: Q01DX009 (ip), vehicle: saline",102 % of control
same,T/C,"dose: 10.0 mg/kg/injection, schedule: Q01DX009 (ip), vehicle: water",111 % of control
same,T/C,"dose: 10.0 mg/kg/injection, schedule: Q04DX003 (ip), vehicle: saline",114 % of control
same,T/C,"dose: 12.0 mg/kg/injection, schedule: Q01DX009 (ip), vehicle: saline",105 % of control
same,T/C,"dose: 12.5 mg/kg/injection, schedule: Q01DX009 (ip), vehicle: water",104 % of control
same,T/C,"dose: 12.5 mg/kg/injection, schedule: Q02DX009 (ip), vehicle: saline",107 % of control
same,T/C,"dose: 15.0 mg/kg/injection, schedule: Q04DX003 (ip), vehicle: saline",107 % of control
same,T/C,"dose: 20.0 mg/kg/injection, schedule: Q01DX005 (ip), vehicle: water",111 % of control
same,T/C,"dose: 20.0 mg/kg/injection, schedule: Q01DX009 (ip), vehicle: saline",112 % of control
same,T/C,"dose: 20.0 mg/kg/injection, schedule: Q04DX003 (ip), vehicle: saline",120 % of control
same,T/C,"dose: 25.0 mg/kg/injection, schedule: Q01DX001 (ip), vehicle: saline",103 % of control
same,T/C,"dose: 25.0 mg/kg/injection, schedule: Q01DX009 (ip), vehicle: Klucel (hydroxypropylcellulose) (HPC)",107 % of control
same,T/C,[2],112 % of control
same,T/C,"dose: 25.0 mg/kg/injection, schedule: Q01DX017 (ip), vehicle: saline",150 % of control
same,T/C,"dose: 25.0 mg/kg/injection, schedule: Q02DX009 (ip), vehicle: saline",114 % of control and 122 % of control and 123 % of control
same,T/C,"dose: 25.0 mg/kg/injection, schedule: Q04DX003 (ip), vehicle: saline",119 % of control and 122 % of control
same,T/C,"dose: 25.0 mg/kg/injection, schedule: Q08DX002 (ip), vehicle: saline",117 % of control
same,T/C,"dose: 30.0 mg/kg/injection, schedule: Q01DX009 (ip), vehicle: water",161 % of control
same,T/C,"dose: 30.0 mg/kg/injection, schedule: Q04DX003 (ip), vehicle: saline",114 % of control
same,T/C,"dose: 38.9 mg/kg/injection, schedule: Q08DX002 (ip), vehicle: saline",116 % of control
same,T/C,"dose: 40.0 mg/kg/injection, schedule: Q01DX005 (ip), vehicle: water",122 % of control
same,T/C,"dose: 40.0 mg/kg/injection, schedule: Q01DX009 (ip), vehicle: water",172 % of control
same,T/C,"dose: 40.0 mg/kg/injection, schedule: Q04DX003 (ip), vehicle: saline",124 % of control
same,T/C,"dose: 41.5 mg/kg/injection, schedule: Q04DX003 (ip), vehicle: saline",120 % of control
same,T/C,"dose: 50.0 mg/kg/injection, schedule: Q01DX009 (ip), vehicle: water",159 % of control and 180 % of control
same,T/C,"dose: 50.0 mg/kg/injection, schedule: Q01DX017 (ip), vehicle: saline",110 % of control
same,T/C,"dose: 50.0 mg/kg/injection, schedule: Q04DX003 (ip), vehicle: saline",124 % of control
same,T/C,"dose: 50.0 mg/kg/injection, schedule: Q04DX005 (ip), vehicle: saline",162 % of control
same,T/C,"dose: 60.0 mg/kg/injection, schedule: Q01DX005 (ip), vehicle: water",169 % of control
same,T/C,"dose: 72.0 mg/kg/injection, schedule: Q01DX001 (ip), vehicle: saline",110 % of control
same,T/C,"dose: 75.0 mg/kg/injection, schedule: Q01DX001 (ip), vehicle: Klucel (hydroxypropylcellulose) (HPC)",156 % of control
same,T/C,"dose: 80.0 mg/kg/injection, schedule: Q04DX003 (ip), vehicle: saline",159 % of control
same,T/C,"dose: 93.3 mg/kg/injection, schedule: Q04DX003 (ip), vehicle: saline",169 % of control
same,T/C,"dose: 100.0 mg/kg/injection, schedule: Q01DX009 (ip), vehicle: Klucel (hydroxypropylcellulose) (HPC)",117 % of control
same,T/C,[1],103 % of control and 117 % of control
same,T/C,"dose: 100.0 mg/kg/injection, schedule: Q02DX009 (ip), vehicle: saline",91 % of control and 112 % of control
same,T/C,"dose: 100.0 mg/kg/injection, schedule: Q04DX005 (ip), vehicle: saline",105 % of control
same,T/C,"dose: 100.0 mg/kg/injection, schedule: Q08DX003 (ip), vehicle: saline",166 % of control
same,T/C,"dose: 108.0 mg/kg/injection, schedule: Q08DX002 (ip), vehicle: saline",161 % of control
same,T/C,"dose: 120.0 mg/kg/injection, schedule: Q01DX001 (ip), vehicle: saline",124 % of control
same,T/C,"dose: 120.0 mg/kg/injection, schedule: Q04DX003 (ip), vehicle: saline",163 % of control
same,T/C,"dose: 140.0 mg/kg/injection, schedule: Q04DX003 (ip), vehicle: saline",169 % of control
same,T/C,"dose: 160.0 mg/kg/injection, schedule: Q04DX003 (ip), vehicle: saline",191 % of control
same,T/C,"dose: 180.0 mg/kg/injection, schedule: Q08DX002 (ip), vehicle: saline",192 % of control
same,T/C,"dose: 200.0 mg/kg/injection, schedule: Q01DX001 (ip), vehicle: water",121 % of control
same,T/C,"dose: 200.0 mg/kg/injection, schedule: Q04DX003 (ip), vehicle: saline",111 % of control
same,T/C,"dose: 210.0 mg/kg/injection, schedule: Q04DX003 (ip), vehicle: saline",205 % of control
same,T/C,"dose: 300.0 mg/kg/injection, schedule: Q01DX001 (ip), vehicle: Klucel (hydroxypropylcellulose) (HPC)",100 % of control
same,T/C,"dose: 300.0 mg/kg/injection, schedule: Q08DX002 (ip), vehicle: saline",117 % of control and 220 % of control and 226 % of control
same,T/C,"dose: 333.0 mg/kg/injection, schedule: Q01DX001 (ip), vehicle: saline",155 % of control
CCC(C)Sc1nc(N)nc2c1ncn2C1OC(CO)C(O)C1O (configuration not stated),T/C,"dose: 37.5 mg/kg/injection, schedule: Q01DX009 (ip), vehicle: Klucel (hydroxypropylcellulose) (HPC)",113 % of control
same,T/C,"dose: 75.0 mg/kg/injection, schedule: Q01DX009 (ip), vehicle: Klucel (hydroxypropylcellulose) (HPC)",99 % of control
same,T/C,"dose: 150.0 mg/kg/injection, schedule: Q01DX009 (ip), vehicle: Klucel (hydroxypropylcellulose) (HPC)",89 % of control
COc1ccccc1N1C(=O)C=CC1=O,T/C,"dose: 0.63 mg/kg/injection, schedule: Q01DX009 (ip), vehicle: saline with Tween-80",93 % of control
same,T/C,"dose: 1.25 mg/kg/injection, schedule: Q01DX009 (ip), vehicle: saline with Tween-80",89 % of control
same,T/C,"dose: 2.5 mg/kg/injection, schedule: Q01DX009 (ip), vehicle: saline with Tween-80",87 % of control
